According to ChEMBL document CHEMBL4828734, “Discovery of High-Affinity Inhibitors of the BPTF Bromodomain” (J Med Chem, 2021):
pEC50, pIC50, pKd: −log10 of the molar value. One block for each compound: values may come before it. Active and inactive are the calls of the source. The rule behind the calls is not given here.

What was measured:
[1] = target: T1, Nucleosome-remodeling factor subunit BPTF (Homo sapiens, UniProt Q12830); test: Inhibition of N-terminal GST-tagged human BPTF (2914 to 3037 residues) expressed in Escherichia coli BL21-CodonPlus (DE3) cells by HTRF assay
[2] = target: CREB-binding protein (Homo sapiens) (UniProt Q92793); test: Binding affinity to CBP-BRD (unknown origin) assessed as change in melting temperature at 50 uM by thermal shift assay
MV4-11 [3] = test: Induction of apoptosis in human MV4-11 cells at 5 to 20 uM after 24 hrs by Annexin V-FITC and propidium iodide staining based flow cytometry analysis; assay type: functional, cell-based; conditions: dose 5-20 µM
[4] = target: T1, Nucleosome-remodeling factor subunit BPTF; test: Displacement of Halo-tagged histone H4 from NanoLuc-tagged BPTF (unknown origin) expressed in HEK293 cells by NanoBRET assay; assay type: cell-based
[5] = target: T1, Nucleosome-remodeling factor subunit BPTF; test: Binding affinity to N-terminal GST-tagged human BPTF (2914 to 3037 residues) expressed in Escherichia coli BL21-CodonPlus (DE3) cells at 200 uM by CPMG NMR spectroscopy
[6] = target: Bromodomain-containing protein 4 (Homo sapiens) (UniProt O60885); test: Inhibition of BRD4-BD1 (unknown origin) at 1 uM using acetylated H4 as substrate incubated for 1 hr by AlphaScreen assay
HUVEC = test: Cytotoxicity against HUVEC assessed as reduction in cell viability at 100 uM after 3 days by Celltiter-Glo assay; assay type: cell-based; conditions: human, 72 h, time 3 day
[7] = target: T1, Nucleosome-remodeling factor subunit BPTF; test: Inhibition of BPTF in human MV4-11 cells assessed as reduction in c-Myc mRNA level incubated for 24 hrs by RT-PCR analysis; assay type: cell-based; conditions: dose 2.5-20 µM
MV4-11 [8] = test: Induction of cell cycle arrest in human MV4-11 cells assessed as accumulation at S phase after 24 hrs by propidium iodide staining based flow cytometry analysis; assay type: functional
[9] = target: Bromodomain-containing protein 4 (Homo sapiens) (UniProt O60885); test: Inhibition of BRD4-BD2 (unknown origin) at 1 uM using acetylated H4 as substrate incubated for 1 hr by AlphaScreen assay
[10] = target: CREB-binding protein (Homo sapiens) (UniProt Q92793); test: Inhibition of CBP-BRD (unknown origin) at 1 uM using acetylated H4 as substrate incubated for 1 hr by AlphaScreen assay
[11] = target: Bromodomain-containing protein 2 (Homo sapiens) (UniProt P25440); test: Inhibition of BRD2-BD1 (unknown origin) at 1 uM using acetylated H4 as substrate incubated for 1 hr by AlphaScreen assay
[12] = target: Histone acetyltransferase p300 (Homo sapiens) (UniProt Q09472); test: Inhibition of p300-BRD (unknown origin) at 1 uM using acetylated H4 as substrate incubated for 1 hr by AlphaScreen assay
[13] = target: T1, Nucleosome-remodeling factor subunit BPTF; test: Binding affinity to N-terminal GST-tagged human BPTF (2914 to 3037 residues) expressed in Escherichia coli BL21-CodonPlus (DE3) cells assessed as change in melting temperature at 25 uM by thermal shift assay
[14] = target: SWI/SNF-related matrix-associated actin-dependent regulator of chromatin subfamily A member 2 (Homo sapiens) (UniProt P51531); test: Inhibition of SMARCA2-BRD (unknown origin) at 1 uM using acetylated H4 as substrate incubated for 1 hr by AlphaScreen assay
[15] = target: T1, Nucleosome-remodeling factor subunit BPTF; test: Binding affinity to N-terminal GST-tagged human BPTF (2914 to 3037 residues) expressed in Escherichia coli BL21-CodonPlus (DE3) cells assessed as change in melting temperature at 100 uM by thermal shift assay
MV4-11 [16] = test: Antiproliferative activity against human MC4-11 cells assessed as reduction in cell viability after 5 days by Celltiter-Glo assay; conditions: MV4-11, 120 h
[17] = target: T1, Nucleosome-remodeling factor subunit BPTF; test: Binding affinity to N-terminal GST-tagged human BPTF (2914 to 3037 residues) expressed in Escherichia coli BL21-CodonPlus (DE3) cells by SPR assay
[18] = target: SWI/SNF-related matrix-associated actin-dependent regulator of chromatin subfamily A member 2 (Homo sapiens) (UniProt P51531); test: Binding affinity to SMARCA2-BRD (unknown origin) assessed as change in melting temperature at 50 uM by thermal shift assay
MV4-11 [19] = test: Induction of cell cycle arrest in human MV4-11 cells assessed as accumulation at G1 phase after 24 hrs by propidium iodide staining based flow cytometry analysis; assay type: functional; conditions: dose 5-20 µM
[20] = target: Bromodomain-containing protein 4 (Homo sapiens) (UniProt O60885); test: Binding affinity to BRD4-BD2 (unknown origin) assessed as change in melting temperature at 50 uM by thermal shift assay
[21] = target: T1, Nucleosome-remodeling factor subunit BPTF; test: Inhibition of BPTF in human MV4-11 cells assessed as reduction in CDK6 mRNA level incubated for 24 hrs by RT-PCR analysis; assay type: cell-based; conditions: dose 2.5-20 µM
[22] = target: T1, Nucleosome-remodeling factor subunit BPTF; test: Binding affinity to N-terminal GST-tagged human BPTF (2914 to 3037 residues) expressed in Escherichia coli BL21-CodonPlus (DE3) cells assessed as change in melting temperature at 50 uM by thermal shift assay
[23] = target: Bromodomain-containing protein 2 (Homo sapiens) (UniProt P25440); test: Inhibition of BRD2-BD2 (unknown origin) at 1 uM using acetylated H4 as substrate incubated for 1 hr by AlphaScreen assay
[24] = target: T1, Nucleosome-remodeling factor subunit BPTF; test: Inhibition of BPTF in human MV4-11 cells assessed as reduction in bcl2 mRNA level incubated for 24 hrs by RT-PCR analysis; assay type: cell-based; conditions: dose 2.5-20 µM
MV4-11 [25] = test: Downregulation of c-Myc protein expression in human MV4-11 cells after 24 hrs by Western blot analysis; assay type: functional, cell-based; conditions: dose 0.6-50 µM
MRC5 = test: Cytotoxicity against human MRC5 assessed as reduction in cell viability at 100 uM after 3 days by Celltiter-Glo assay; assay type: cell-based; conditions: mrc5, 72 h, time 3 day
[26] = target: T1, Nucleosome-remodeling factor subunit BPTF; test: Inhibition of N-terminal GST-tagged human BPTF (2914 to 3037 residues) expressed in Escherichia coli BL21-CodonPlus (DE3) cells at 1 uM incubated for 1 hr by AlphaScreen assay relative to control
[27] = target: T1, Nucleosome-remodeling factor subunit BPTF; test: Binding affinity to N-terminal GST-tagged human BPTF (2914 to 3037 residues) expressed in Escherichia coli BL21-CodonPlus (DE3) cells at 200 uM by STD NMR spectroscopy
[28] = target: Bromodomain-containing protein 4 (Homo sapiens) (UniProt O60885); test: Binding affinity to BRD4-BD1 (unknown origin) assessed as change in melting temperature at 50 uM by thermal shift assay
[29] = target: Bromodomain-containing protein 2 (Homo sapiens) (UniProt P25440); test: Binding affinity to BRD2-BD1 (unknown origin) assessed as change in melting temperature at 50 uM by thermal shift assay
[30] = target: Bromodomain-containing protein 2 (Homo sapiens) (UniProt P25440); test: Binding affinity to BRD2-BD2 (unknown origin) assessed as change in melting temperature at 50 uM by thermal shift assay
[31] = target: Histone acetyltransferase p300 (Homo sapiens) (UniProt Q09472); test: Binding affinity to p300-BRD (unknown origin) assessed as change in melting temperature at 50 uM by thermal shift assay
[32] = target: T1, Nucleosome-remodeling factor subunit BPTF; test: Binding affinity to N-terminal GST-tagged human BPTF (2914 to 3037 residues) expressed in Escherichia coli BL21-CodonPlus (DE3) cells assessed as change in melting temperature at 12.5 uM by thermal shift assay
[33] = target: T1, Nucleosome-remodeling factor subunit BPTF; test: Binding affinity to BPTF (unknown origin)
[34] = target: T1, Nucleosome-remodeling factor subunit BPTF
Description: Binding affinity to BPTF (unknown origin) expressed in Escherichia coli BL21 (DE3) cells by SPR analysis

Sequence of Bromodomain-containing protein 2 (Homo sapiens) (P25440 whole entry, looked up): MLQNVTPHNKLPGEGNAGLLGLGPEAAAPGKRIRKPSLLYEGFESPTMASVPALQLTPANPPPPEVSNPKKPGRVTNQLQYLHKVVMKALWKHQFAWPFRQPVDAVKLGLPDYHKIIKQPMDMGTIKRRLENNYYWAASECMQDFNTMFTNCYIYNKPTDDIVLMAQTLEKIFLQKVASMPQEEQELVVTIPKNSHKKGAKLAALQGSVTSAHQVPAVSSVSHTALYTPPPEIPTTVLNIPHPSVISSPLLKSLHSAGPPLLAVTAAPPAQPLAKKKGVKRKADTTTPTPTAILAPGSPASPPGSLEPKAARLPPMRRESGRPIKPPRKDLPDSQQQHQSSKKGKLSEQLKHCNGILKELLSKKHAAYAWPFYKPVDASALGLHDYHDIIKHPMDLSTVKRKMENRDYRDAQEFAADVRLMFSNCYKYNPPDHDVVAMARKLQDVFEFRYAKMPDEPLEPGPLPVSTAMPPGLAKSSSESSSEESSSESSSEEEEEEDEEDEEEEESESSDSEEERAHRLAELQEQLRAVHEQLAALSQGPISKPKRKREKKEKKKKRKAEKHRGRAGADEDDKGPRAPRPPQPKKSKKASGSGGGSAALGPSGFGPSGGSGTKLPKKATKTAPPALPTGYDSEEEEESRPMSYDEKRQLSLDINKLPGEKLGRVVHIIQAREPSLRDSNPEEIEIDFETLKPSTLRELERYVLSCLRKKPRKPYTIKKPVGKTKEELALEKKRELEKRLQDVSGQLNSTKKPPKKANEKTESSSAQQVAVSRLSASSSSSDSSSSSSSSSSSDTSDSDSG
Sequence of SWI/SNF-related matrix-associated actin-dependent regulator of chromatin subfamily A member 2 (Homo sapiens) (P51531 whole entry, the tested form may be a part): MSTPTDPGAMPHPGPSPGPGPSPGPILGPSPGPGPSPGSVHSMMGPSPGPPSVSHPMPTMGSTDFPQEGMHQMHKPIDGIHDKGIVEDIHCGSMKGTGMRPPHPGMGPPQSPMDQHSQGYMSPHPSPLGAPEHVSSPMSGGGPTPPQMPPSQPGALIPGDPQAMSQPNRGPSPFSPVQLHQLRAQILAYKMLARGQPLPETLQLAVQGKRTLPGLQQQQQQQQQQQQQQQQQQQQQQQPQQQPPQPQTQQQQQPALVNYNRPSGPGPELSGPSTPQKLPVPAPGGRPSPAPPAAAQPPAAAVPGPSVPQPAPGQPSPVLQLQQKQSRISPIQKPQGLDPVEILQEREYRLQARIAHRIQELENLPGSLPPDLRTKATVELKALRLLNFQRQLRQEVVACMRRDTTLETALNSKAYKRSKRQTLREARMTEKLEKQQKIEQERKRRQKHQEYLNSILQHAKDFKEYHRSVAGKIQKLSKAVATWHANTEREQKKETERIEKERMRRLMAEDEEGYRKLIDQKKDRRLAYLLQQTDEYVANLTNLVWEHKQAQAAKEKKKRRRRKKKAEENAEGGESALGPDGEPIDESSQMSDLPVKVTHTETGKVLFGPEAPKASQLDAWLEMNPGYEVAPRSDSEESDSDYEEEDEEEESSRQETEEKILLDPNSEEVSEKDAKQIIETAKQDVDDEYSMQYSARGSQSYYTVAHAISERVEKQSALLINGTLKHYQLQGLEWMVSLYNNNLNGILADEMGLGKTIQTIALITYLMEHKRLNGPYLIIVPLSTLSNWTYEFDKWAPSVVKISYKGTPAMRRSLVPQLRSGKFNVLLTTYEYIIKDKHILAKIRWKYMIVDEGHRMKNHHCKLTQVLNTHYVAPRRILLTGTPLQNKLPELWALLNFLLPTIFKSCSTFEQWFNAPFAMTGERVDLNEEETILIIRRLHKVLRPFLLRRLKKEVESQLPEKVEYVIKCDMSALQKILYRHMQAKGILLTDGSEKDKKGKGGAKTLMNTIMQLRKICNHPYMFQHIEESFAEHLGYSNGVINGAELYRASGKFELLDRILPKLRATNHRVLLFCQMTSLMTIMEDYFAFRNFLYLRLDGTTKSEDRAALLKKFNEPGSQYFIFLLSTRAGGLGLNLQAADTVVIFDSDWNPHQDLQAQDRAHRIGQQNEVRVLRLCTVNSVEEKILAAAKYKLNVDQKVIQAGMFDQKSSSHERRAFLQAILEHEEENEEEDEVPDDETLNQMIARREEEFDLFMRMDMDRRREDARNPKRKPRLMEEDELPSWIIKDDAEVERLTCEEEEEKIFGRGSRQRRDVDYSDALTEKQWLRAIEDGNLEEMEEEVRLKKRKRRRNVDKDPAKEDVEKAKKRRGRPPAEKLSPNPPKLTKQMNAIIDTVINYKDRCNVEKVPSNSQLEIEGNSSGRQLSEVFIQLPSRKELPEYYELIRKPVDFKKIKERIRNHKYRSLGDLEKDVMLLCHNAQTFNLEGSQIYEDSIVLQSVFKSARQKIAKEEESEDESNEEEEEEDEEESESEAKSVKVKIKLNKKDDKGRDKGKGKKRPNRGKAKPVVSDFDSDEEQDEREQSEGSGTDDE
Sequence of CREB-binding protein (Homo sapiens) (Q92793 2-2442 limits assumed): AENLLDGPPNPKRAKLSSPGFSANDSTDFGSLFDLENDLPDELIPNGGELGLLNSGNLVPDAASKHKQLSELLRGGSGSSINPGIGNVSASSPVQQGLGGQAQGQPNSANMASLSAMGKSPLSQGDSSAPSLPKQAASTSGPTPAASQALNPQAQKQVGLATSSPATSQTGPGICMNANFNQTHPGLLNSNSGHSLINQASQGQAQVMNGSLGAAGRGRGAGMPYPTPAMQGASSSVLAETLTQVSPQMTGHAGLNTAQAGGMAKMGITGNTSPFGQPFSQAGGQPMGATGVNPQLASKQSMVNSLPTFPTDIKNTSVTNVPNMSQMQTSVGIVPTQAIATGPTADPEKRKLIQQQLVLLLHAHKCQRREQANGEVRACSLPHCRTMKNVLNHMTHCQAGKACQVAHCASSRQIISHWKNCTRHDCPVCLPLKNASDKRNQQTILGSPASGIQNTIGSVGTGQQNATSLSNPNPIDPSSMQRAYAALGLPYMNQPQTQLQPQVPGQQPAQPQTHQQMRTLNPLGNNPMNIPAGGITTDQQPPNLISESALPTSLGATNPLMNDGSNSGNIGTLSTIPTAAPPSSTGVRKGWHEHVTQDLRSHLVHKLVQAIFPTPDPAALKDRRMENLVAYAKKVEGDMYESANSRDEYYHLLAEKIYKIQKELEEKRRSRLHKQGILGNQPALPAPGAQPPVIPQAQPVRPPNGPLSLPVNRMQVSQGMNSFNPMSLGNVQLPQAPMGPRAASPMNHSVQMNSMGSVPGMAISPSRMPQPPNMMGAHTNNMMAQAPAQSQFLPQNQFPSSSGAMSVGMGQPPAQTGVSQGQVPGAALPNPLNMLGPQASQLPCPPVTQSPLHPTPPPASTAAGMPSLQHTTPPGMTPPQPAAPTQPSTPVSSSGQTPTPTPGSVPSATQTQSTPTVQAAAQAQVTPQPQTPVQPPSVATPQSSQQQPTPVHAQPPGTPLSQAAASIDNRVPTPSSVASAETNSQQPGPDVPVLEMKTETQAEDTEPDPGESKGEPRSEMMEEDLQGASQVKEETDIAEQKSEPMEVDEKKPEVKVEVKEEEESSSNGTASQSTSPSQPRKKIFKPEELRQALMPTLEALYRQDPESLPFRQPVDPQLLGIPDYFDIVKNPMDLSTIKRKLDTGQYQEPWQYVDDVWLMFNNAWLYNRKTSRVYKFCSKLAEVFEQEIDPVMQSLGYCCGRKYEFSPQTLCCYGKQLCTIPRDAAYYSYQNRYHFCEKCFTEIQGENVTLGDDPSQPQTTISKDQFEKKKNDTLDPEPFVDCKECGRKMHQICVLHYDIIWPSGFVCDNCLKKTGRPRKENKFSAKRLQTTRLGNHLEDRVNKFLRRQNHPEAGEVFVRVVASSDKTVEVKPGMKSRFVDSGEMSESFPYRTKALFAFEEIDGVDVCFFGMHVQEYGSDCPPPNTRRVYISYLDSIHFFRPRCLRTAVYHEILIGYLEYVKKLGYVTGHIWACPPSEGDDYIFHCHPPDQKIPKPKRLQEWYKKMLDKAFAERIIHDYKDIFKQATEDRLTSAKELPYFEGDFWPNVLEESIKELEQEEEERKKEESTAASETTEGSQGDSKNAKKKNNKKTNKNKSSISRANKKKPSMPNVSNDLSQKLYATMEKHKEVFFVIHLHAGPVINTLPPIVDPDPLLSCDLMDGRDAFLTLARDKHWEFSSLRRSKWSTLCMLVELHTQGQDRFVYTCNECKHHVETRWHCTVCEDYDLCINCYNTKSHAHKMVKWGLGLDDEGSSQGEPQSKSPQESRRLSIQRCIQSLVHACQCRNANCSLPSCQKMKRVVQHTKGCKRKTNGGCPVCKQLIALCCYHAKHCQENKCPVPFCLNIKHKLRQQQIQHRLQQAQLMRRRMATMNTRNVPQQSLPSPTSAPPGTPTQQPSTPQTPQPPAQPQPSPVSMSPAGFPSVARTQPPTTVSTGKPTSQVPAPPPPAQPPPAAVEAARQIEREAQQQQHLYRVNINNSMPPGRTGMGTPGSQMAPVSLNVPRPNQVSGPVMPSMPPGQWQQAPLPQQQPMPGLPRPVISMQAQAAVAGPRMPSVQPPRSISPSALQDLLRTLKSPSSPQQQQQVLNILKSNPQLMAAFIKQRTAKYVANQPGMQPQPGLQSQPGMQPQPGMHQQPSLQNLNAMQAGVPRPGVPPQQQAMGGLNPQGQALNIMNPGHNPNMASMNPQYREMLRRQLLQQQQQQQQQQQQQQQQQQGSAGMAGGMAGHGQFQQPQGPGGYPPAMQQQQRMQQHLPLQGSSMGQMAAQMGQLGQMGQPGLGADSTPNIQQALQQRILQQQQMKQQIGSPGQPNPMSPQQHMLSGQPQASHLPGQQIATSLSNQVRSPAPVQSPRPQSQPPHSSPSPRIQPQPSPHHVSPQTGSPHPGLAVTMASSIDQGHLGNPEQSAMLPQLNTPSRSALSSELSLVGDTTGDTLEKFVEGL

SMILES: CCC(C)Nc1cc(-c2ccc3c(ccn3CCCN(C)C)c2)nc(S(C)(=O)=O)n1 (stereo not drawn)
pIC50 [1]: 6.54

SMILES: CN(C)CCCn1ccc2cc(-c3nc(S(C)(=O)=O)nc4[nH]ccc34)ccc21
Activity [2]: inactive | Activity (MV4-11 [3]): Active | pEC50 [4]: 6.92 | Activity [5]: Active | inhibition [6]: inactive | Activity (HUVEC): Non-Toxic | pIC50 [1]: 7.57 | inhibition [7]: Dose-Dependent Effect | Activity (MV4-11 [8]): Dose-Dependent Effect | inhibition [9]: inactive | inhibition [10]: inactive | inhibition [11]: inactive | inhibition [12]: inactive | ΔTm [13]: 5.02 °C | inhibition [14]: inactive | ΔTm [15]: 7.66 °C | pIC50 (MV4-11 [16]): 6.05 | pKd [17]: 7.68 | Activity [18]: inactive | Activity (MV4-11 [19]): Dose-Dependent Effect | Activity [20]: inactive | inhibition [21]: Dose-Dependent Effect | ΔTm [22]: 6.5 °C | inhibition [23]: inactive | inhibition [24]: Dose-Dependent Effect | Activity (MV4-11 [25]): Dose-Dependent Effect | Activity (MRC5): Non-Toxic | inhibition [26]: 100% | Activity [27]: Active | Activity [28]: inactive | Activity [29]: inactive | Activity [30]: inactive | Activity [31]: inactive

SMILES: CNc1cc(-c2cccc3ncccc23)nc(S(C)(=O)=O)n1
pIC50 [1]: 5.77

SMILES: CNc1cc(-c2ccc3ccn(CCCN(C)C)c3c2)nc(S(C)(=O)=O)n1
pIC50 [1]: 5.68

SMILES: CNc1cc(-c2ccc3c(ccn3CCCN(C)C)c2)nc([S+](C)[O-])n1 (stereo not drawn)
pIC50 [1]: 7.23

SMILES: CNc1cc(-c2ccc3c(ccn3CCCN(C)C)c2)nc(S(C)(=O)=O)n1
pIC50 [1]: 7.49

SMILES: Cc1cn(CCCN(C)C)c2ccc(-c3nc(S(C)(=O)=O)nc4[nH]ccc34)cc12
pIC50 [1]: 6.80

SMILES: CNc1cc(-c2ccccc2)nc(S(C)(=O)=O)n1
pIC50 [1]: 5.11

SMILES: CNc1cc(-c2ccc3[nH]ccc3c2)nc(S(C)(=O)=O)n1
pIC50 [1]: 6.16 | ΔTm [13]: 1.29 °C | ΔTm [15]: 2.4 °C | pKd [17]: 5.55 | ΔTm [32]: 1.22 °C | ΔTm [22]: 1.67 °C

SMILES: CNc1cc(-c2ccc3c(ccn3CCN(C)C)c2)nc(S(C)(=O)=O)n1
pIC50 [1]: 7.43

SMILES: CCCNc1cc(-c2cc(OC)c3c(ccn3CCCN(C)C)c2)nc(S(C)(=O)=O)n1
pIC50 [1]: 7.20

SMILES: CN(C)CCCOc1ccc(-c2cc(NCCCn3cccn3)nc(S(C)(=O)=O)n2)cc1
pKd [33]: 6.92 | pKd [34]: 6.70

The next lines start with the values.

pIC50 [1]: 7.54
SMILES: CCNc1cc(-c2ccc3c(ccn3CCCN(C)C)c2)nc(S(C)(=O)=O)n1

pIC50 [1]: 6.84
SMILES: CCCNc1cc(-c2ccc3c(ccn3CCCN(C)C)c2)nc([S+](C)[O-])n1 (stereo not drawn)

pIC50 [1]: 7.80 | ΔTm [13]: 6.12 °C | ΔTm [15]: 8.9 °C | pKd [17]: 4.30 | ΔTm [32]: 3.87 °C | ΔTm [22]: 7.97 °C
SMILES: CCCNc1cc(-c2ccc3c(ccn3CCCN(C)C)c2)nc(S(C)(=O)=O)n1

pIC50 [1]: 6.94
SMILES: CCCCNc1cc(-c2ccc3c(ccn3CCCN(C)C)c2)nc(S(C)(=O)=O)n1

pKd [33]: 7.15
SMILES: Cc1c(Nc2ccc(S(=O)(=O)N3CCN(C)CC3)cc2F)nc2ccc(-c3cnn(C4CC4)c3)cn2c1=O

pIC50 [1]: 7.23
SMILES: CCCNc1cc(-c2ccc3c(c2)c(C)cn3CCCN(C)C)nc(S(C)(=O)=O)n1

pIC50 [1]: 4.83
SMILES: CN(C)CCCn1ccc2cc(-c3cc(N(C)C)nc(S(C)(=O)=O)n3)ccc21

pKd [33]: 4.75
SMILES: CCOc1c(I)cc(C(N)=O)cc1OC
